Data set [1] has as its target T1, full-length human Mineralocorticoid Receptor (MR) (Homo sapiens, UniProt P08235).
T1 construct: host or cells: PathHunter CHO-K1 MR cells
T1 sequence (P08235 1-984): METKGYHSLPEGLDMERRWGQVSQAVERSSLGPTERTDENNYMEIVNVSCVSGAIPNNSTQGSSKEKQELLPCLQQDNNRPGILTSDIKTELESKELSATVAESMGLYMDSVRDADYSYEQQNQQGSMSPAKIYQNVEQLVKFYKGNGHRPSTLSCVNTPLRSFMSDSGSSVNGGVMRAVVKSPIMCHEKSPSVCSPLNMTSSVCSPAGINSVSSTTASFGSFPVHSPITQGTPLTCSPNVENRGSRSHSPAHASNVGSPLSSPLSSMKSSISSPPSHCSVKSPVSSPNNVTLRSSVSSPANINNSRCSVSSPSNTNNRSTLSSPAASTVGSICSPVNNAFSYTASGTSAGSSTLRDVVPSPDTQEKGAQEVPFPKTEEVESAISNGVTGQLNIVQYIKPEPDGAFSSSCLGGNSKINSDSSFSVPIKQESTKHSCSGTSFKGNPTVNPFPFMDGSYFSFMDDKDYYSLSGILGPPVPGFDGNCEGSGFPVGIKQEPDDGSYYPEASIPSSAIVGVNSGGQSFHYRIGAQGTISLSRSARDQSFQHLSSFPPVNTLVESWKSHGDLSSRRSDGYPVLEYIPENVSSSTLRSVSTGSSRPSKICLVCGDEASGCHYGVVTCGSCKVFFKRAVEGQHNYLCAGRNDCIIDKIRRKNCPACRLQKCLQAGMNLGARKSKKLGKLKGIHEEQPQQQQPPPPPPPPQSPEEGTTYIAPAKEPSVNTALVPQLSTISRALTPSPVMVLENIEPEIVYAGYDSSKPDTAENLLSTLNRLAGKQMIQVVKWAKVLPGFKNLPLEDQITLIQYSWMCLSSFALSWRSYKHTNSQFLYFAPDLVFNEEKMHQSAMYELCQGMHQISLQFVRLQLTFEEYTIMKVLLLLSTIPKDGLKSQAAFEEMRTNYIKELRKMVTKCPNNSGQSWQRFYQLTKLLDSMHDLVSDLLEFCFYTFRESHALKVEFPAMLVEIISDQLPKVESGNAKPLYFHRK
The experiment in a line: human MR NH Pro assay (PathHunter Protein:Protein interaction assay), MR antagonism. It counts as cell-based. The conditions noted are these: IP = inflection point of the dose-response curve; CHO-K1 cells overexpressing human MR, aldosterone about 0.3 nM to about 1 nM, 6 hours at 37° C. The text has this:
The activity of the compounds of the present invention regarding mineralocorticoid receptor antagonism can be evaluated using the following assay.
Assessment of MR Potency in HMR NH Pro Assay
The human MR NH Pro assay is a commercially available PathHunter™ Protein:Protein interaction assay (DiscoveRx; http://www.discoverx.com/nhrs/prod-nhrs.php) that measures the ability of compounds to antagonize full-length human Mineralocorticoid Receptor (MR) binding to a coactivator peptide.
Stock solution was prepared at 10 μM in DMSO and stored at −20° C. for assay, dilute in assay media to 1.8 or 6 nM (6× of final concentration=about 0.3 nM to about 1.0 nM)
5. Cell line: PathHunter CHO-K1 MR cells Cat #93-0456C2, Lot No: 09B0913, from operation liquid nitrogen stock.
6. Control Antagonist: Spironolactone: Sigma #S-3378 and Eplerenone Sigma #107724-20-9 (10 mM stock concentration also prepared in DMSO and stored at −20° C.).
1. Cells are grown in F12+FBS+Hygromycin+pen/strep+Genetin
2. Cells are collected with 0.05% trypsin and the cell suspension is spun and resuspended in a volume of F12+1.5% CD-FBS and counted.
3. The cells concentration was adjusted to 4×10^5 cells/mL.
4. Cells were (25 μL/well) added to the wells of a 384 well plate.
5. The plate was then incubated at 37° C. over night in a humidified incubator with 5% CO2.
6. Test compounds were titrated starting at 4.4 mM, 10-point titration in 1:3 dilution.
Protocol for 384 well plate format: 6 hr treatment:
1. 10K exponentially growing cells/well (25 μL) were resuspended in assay media and plated into each well using the Multidrop (Thermo Electron) (use white wall, clear bottom assay plates (Costar #3570) and incubated overnight at 37° C., 5% CO2.
2. 0.25 μL 120× test compound (final DMSO concentration should be <1%) was added to each well n=2, 10 point titrations starting at 36.7 μM final concentration.
4. 5 μL of assay media was added to all wells in column 23 and 24.
5. Cells were then incubated for 6 hrs at 37° C., 5% CO2.
6. 15 μL 3× DiscoveRx detection reagent was then added to each well.
7. Plates were incubated for 1 hour at room temperature in the dark.
8. Plates were read on Envision (PerkinElmer) luminesence plate reader and analyzed using ADA.

Another data set in a line: PK profile in rats. To be noted: for clearance / half-life / bioavailability: rat, in vivo; for bioavailability: oral. It counts as in vivo, rat.
A short description of data set [2]: Liver microsome stability, human. The conditions noted are these: for Liver Microsome Stability (t1/2): Human; for half-life: human, liver microsomes, read-out: Liver Microsome Stability (t1/2). It counts as in vitro ADME.
Data set [3] in a line: Liver microsome stability, rat. The conditions noted are these: liver microsomes, read-out: Liver Microsome Stability (t1/2). It counts as in vitro ADME. Background: Microsomes from liver hold many membrane-bound enzymes, among them those of drug oxidation.
Data set [4] is described as follows: Liver microsome stability, dog. It counts as in vitro ADME. The conditions noted are these: liver microsomes, read-out: Liver Microsome Stability (t1/2).
The nature of data set [5]: Liver microsome stability, rhesus monkey. It counts as in vitro ADME. To be noted: liver microsomes, read-out: Liver Microsome Stability (t1/2).
Data set [6] can be described thus: Hepatocyte stability, human. It counts as in vitro ADME. The conditions noted are these: for half-life: human, hepatocytes, read-out: Hepatocyte Stability (t1/2).
A short description of data set [7]: Hepatocyte stability, rat. The class given is in vitro ADME. The conditions noted are these: hepatocytes, read-out: Hepatocyte Stability (t1/2).
The nature of data set [8]: Hepatocyte stability, dog. It counts as in vitro ADME. To be noted: hepatocytes, read-out: Hepatocyte Stability (t1/2).
Data set [9] is described as follows: Hepatocyte stability, rhesus monkey. It counts as in vitro ADME. The conditions noted are these: hepatocytes, read-out: Hepatocyte Stability (t1/2).
A short description of data set [10]: Metabolic stability in liver microsome and hepatocytes of multiple animal species (overall statement). It counts as in vitro ADME.

As a reminder, the IC50 is the point on the concentration scale where inhibition reaches its midpoint. What is called clearance is the rate of elimination divided by the concentration. In general, bioavailability refers to the share of a dose that reaches the circulation, judged against a reference dose that is usually intravenous. `CCC(c1ccc(Br)cc1)(C(C)O)n1ncc2c(NS(C)(=O)=O)cccc21` (single isomer, unassigned) [Compound 2, N-(1-(3-(4-bromophenyl)-2-hydroxypentan-3-yl)-1H-indazol-4-yl) methanesulfonamide]: in data set [1], half-maximal inhibition (IC50) was put at 7 nM. In the data set “PK profile in rats”, the “PK profile in rats (in words)” value is “good PK profile”. Moreover, the AUCN po in the data set “PK profile in rats” was determined as 1.0 µM·kg·h/mg. Further, the clearance in the data set “PK profile in rats” turned out to be 18 mL/min/kg. The half-life was 3.6 h in “PK profile in rats”; 0.883 h in data set [3]; 1.12 h in data set [4]; 0.383 h in [5]; greater than 1.5 h in data set [7]; 0.75 h in data set [8]. In data set [9], the half-life is 0.933 h. In “PK profile in rats”, this compound returned a bioavailability of 49%. For the same compound, in [2], the “Liver Microsome Stability (t1/2)” value was 0.8 h. In addition, the “Hepatocyte Stability (t1/2)” value in data set [6] (Human) amounted to 1.15 h. Further, the “metabolic stability in liver microsome and hepatocytes of multiple animal species (in words)” value (from here on “metabolic stability”) in data set [10] was “good metabolic stability”.

With `CCC(O)C(CC)(c1ccc(C(F)(F)F)cc1)n1ncc2c(NS(C)(=O)=O)cccc21` (single isomer, unassigned) [Compound 9, N-(1-(4-hydroxy-3-(4-(trifluoromethyl)phenyl)hexan-3-yl)-1H-indazol-4-yl)methanesulfonamide], inhibition in [1] was half-maximal at 4 nM (IC50). Moreover, in “PK profile in rats”, the Cl turned out to be 24 mL/min/kg. Further, in “PK profile in rats”, the “PK profile in rats (in words)” value is “good PK profile”. Besides, the t1/2 in the data set “PK profile in rats” is 5.3 h. In the data set “PK profile in rats”, the AUCN po turned out to be 1.3 µM·kg·h/mg. The compound also returned a bioavailability in the data set “PK profile in rats” of 76%. The “Liver Microsome Stability (t1/2)” value in data set [2] came out at 1.2 h. For the same compound, the half-life in data set [3] is 1.02 h; in data set [4], 1.08 h; in data set [5] it was 1.02 h; in data set [6], greater than 1.5 h; in data set [7], greater than 1.5 h; in [8], 0.8 h. For the same compound, the half-life in data set [9] is greater than 1.5 h. Also, the “metabolic stability” value in data set [10] was “good metabolic stability”.

The compound `CCC(c1ccc(C(F)(F)F)cc1)(C(C)O)n1ncc2c(NS(C)(=O)=O)cc(F)cc21` (single isomer, unassigned) [Compound 31, N-(6-fluoro-1-(2-hydroxy-3-(4-(trifluoromethyl)phenyl)pentan-3-yl)-1H-indazol-4-yl)methanesulfonamide] yielded a half-inhibitory concentration (IC50) in data set [1] of 51 nM. In the data set “PK profile in rats”, the “PK profile in rats (in words)” value is listed as “good PK profile”. The same compound returned an AUCN po in “PK profile in rats” of 4.0 µM·kg·h/mg. Besides, the clearance in the data set “PK profile in rats” worked out at 8.4 mL/min/kg. Moreover, the half-life in “PK profile in rats” is 5.2 h; in [2], 2.6 h; in [3] it was 3.9 h; in [4], 2.13 h; in data set [5], 1.12 h; in data set [6], 1.5 h. Besides, the half-life was greater than 1.5 h in data set [7], 1.22 h in data set [8] and greater than 1.5 h in data set [9]. The bioavailability in “PK profile in rats” amounted to 92%. Moreover, in data set [10], the “metabolic stability” value is given as “excellent metabolic stability”.

As for `CC(O)C(CC(F)F)(c1ccc(C(F)(F)F)cc1)n1ncc2c(NS(C)(=O)=O)cccc21` (single isomer, unassigned) [Compound 35, N-(1-(1,1-difluoro-4-hydroxy-3-(4-(trifluoromethyl)phenyl)pentan-3-yl)-1H-indazol-4-yl)methanesulfonamide], the IC50 in data set [1] came to 50 nM. In the data set “PK profile in rats”, the “PK profile in rats (in words)” value is given as “good PK profile”, the AUCN po stood at 2.7 µM·kg·h/mg, the clearance turned out to be 14 mL/min/kg and the half-life was 7 h. Moreover, the bioavailability in the data set “PK profile in rats” stood at 98%. Moreover, the “metabolic stability” value in data set [10] is given as “good metabolic stability”.

In data set [1], `CC(O)C(CC(F)F)(c1ccc(C(F)(F)F)cc1)n1ncc2c(NS(C)(=O)=O)cccc21` (single isomer, unassigned) [Compound 37, N-(1-(1,1-difluoro-4-hydroxy-3-(4-(trifluoromethyl)phenyl)pentan-3-yl)-1H-indazol-4-yl)methanesulfonamide] registered an IC50 of 66 nM. The half-life was 1.43 h in data set [2]; 2.03 h in [3]; 0.967 h in [4]; 2.05 h in [5]; greater than 1.5 h in data set [6]; greater than 1.5 h in data set [7]. Also, the half-life in [8] is 1.32 h; in [9] it was greater than 1.5 h.

`CCC(c1ccc(C(F)(F)F)cc1)(C(O)C(F)F)n1ncc2c(NS(=O)(=O)CC)cc(F)cc21` (single isomer, unassigned) [Compound 54, N-(1-(1,1-difluoro-2-hydroxy-3-(4-(trifluoromethyl)phenyl)pentan-3-yl)-6-fluoro-1H-indazol-4-l)ethanesulfonamide] returned an IC50 in [1] of 12 nM.

As for `CCC(O)C(CC(F)F)(c1ccc(C(F)(F)F)cc1)n1ncc2c(NS(=O)(=O)CC)cccc21` (single isomer, unassigned) [Compound 55, N-(1-(1,1-difluoro-4-hydroxy-3-(4-(trifluoromethyl)phenyl)hexan-3-yl)-1H-indazol-4-yl)ethanesulfonamide], the IC50 in data set [1] was 18 nM.

With `CCC(O)C(CC(F)F)(c1ccc(C(F)(F)F)cc1)n1ncc2c(NS(=O)(=O)CC)cccc21` (single isomer, unassigned) [Compound 56, N-(1-(1,1-difluoro-4-hydroxy-3-(4-(trifluoromethyl)phenyl)hexan-3-yl)-1H-indazol-4-yl)ethanesulfonamide], the IC50 in data set [1] amounted to 10 nM.

In data set [1], `CCS(=O)(=O)Nc1cccc2c1cnn2C(CC(F)F)(c1ccc(C(F)(F)F)cc1)C(C)O` (single isomer, unassigned) [Compound 57, N-(1-(1,1-difluoro-4-hydroxy-3-(4-(trifluoromethyl)phenyl)pentan-3-yl)-1H-indazol-4-yl)ethanesulfonamide] returned an IC50 of 43 nM.

`CCS(=O)(=O)Nc1cccc2c1cnn2C(CC(F)F)(c1ccc(C(F)(F)F)cc1)C(C)O` (single isomer, unassigned) [Compound 58, N-(1-(1,1-difluoro-4-hydroxy-3-(4-(trifluoromethyl)phenyl)pentan-3-yl)-1H-indazol-4-yl)ethanesulfonamide] returned an IC50 in data set [1] of 38 nM.
